What is called inhibition is the relative decrease from the control value, in per cent. As usually defined, the IC50 is the point on the concentration scale where inhibition reaches its midpoint.

Where “and” joins values, the source holds several entries; their conditions need not be identical. Equal entries are not always repeated.

Inhibition and IC50 data for eight molecules are collected here from patent publication US7125878B2, “Substituted pyrroline kinase inhibitors” (Janssen Pharmaceutica, priority 2002, dated 2006).

One assay concerns the target PKC-α (Homo sapiens, UniProt P17252). Kind of assay: Protein Kinase C Histone-Based Assay, isozyme α. Particulars: for inhibition at 1 µM / inhibition at 10 µM: read-out: PKC-α % inhibition.
The target of a further assay is PKC-γ (Homo sapiens, UniProt P05129). Kind of assay: Protein Kinase C Histone-Based Assay, isozyme γ. To be noted: for inhibition at 1 µM / inhibition at 10 µM: read-out: PKC-γ % inhibition.
Assay [1] concerns the target T1, recombinant rabbit GSK-3β protein (Oryctolagus cuniculus, UniProt G1T8E2).
T1 construct: purchased New England Biolabs
Kind of assay: Glycogen Synthase Kinase-3 Assay (33P phosphorylation of PPI-2). Format: biochemical. Particulars: for IC50: two numbers = data obtained on different days; for inhibition at 1 µM: two numbers = different days. The method, then:
Glycogen Synthase Kinase-3 Assay
Compounds were tested for the ability to inhibit recombinant rabbit GSK-3β protein using the following protocol. The test compound was added to a reaction mixture containing Protein Phosphatase Inhibitor-2 (PPI-2) (Calbiochem) (45 ng), rabbit GSK-3β protein (New England Biolabs) (0.75 units) and ^33P-ATP (1 μCi) in 50 mM Tris-HCl (pH 8.0), 10 mM MgCl2, 0.1% BSA, 1 mM DTT and 100 μM Sodium Vanadate. The mixture was reacted for 90 minutes at 30° C. to allow phosphorylation of the PPI-2 protein and then the protein in the reaction was precipitated using 10% TCA. The precipitated protein was collected on filter plates (MultiScreen-DV/Millipore), which were subsequently washed. Finally, the radioactivity was quantified using a TopCount Scintillation Counter (Packard). […] Staurosporine or Valproate, known inhibitors of GSK-3β, were used as a positive control for screening.

Another assay concerns the target PKC-βII (Homo sapiens, UniProt P05771). Kind of assay: Protein Kinase C Histone-Based Assay, isozyme β-II. Format: biochemical. Particulars: for IC50: histone III substrate.

T1 sequence (G1T8E2 1-432): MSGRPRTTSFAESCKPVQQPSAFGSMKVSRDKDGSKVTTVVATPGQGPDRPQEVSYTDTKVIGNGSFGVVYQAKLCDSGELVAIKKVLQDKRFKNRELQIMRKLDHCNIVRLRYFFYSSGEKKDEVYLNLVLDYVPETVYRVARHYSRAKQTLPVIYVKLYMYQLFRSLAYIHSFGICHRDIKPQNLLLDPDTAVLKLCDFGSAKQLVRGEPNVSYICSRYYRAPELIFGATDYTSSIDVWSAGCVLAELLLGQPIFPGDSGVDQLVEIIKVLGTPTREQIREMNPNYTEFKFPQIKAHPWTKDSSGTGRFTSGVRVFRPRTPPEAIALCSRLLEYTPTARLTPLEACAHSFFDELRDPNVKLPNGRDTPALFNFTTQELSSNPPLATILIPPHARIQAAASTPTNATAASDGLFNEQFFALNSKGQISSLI
PKC-βII, sequence (P05771 1-673 isoform P05771-2): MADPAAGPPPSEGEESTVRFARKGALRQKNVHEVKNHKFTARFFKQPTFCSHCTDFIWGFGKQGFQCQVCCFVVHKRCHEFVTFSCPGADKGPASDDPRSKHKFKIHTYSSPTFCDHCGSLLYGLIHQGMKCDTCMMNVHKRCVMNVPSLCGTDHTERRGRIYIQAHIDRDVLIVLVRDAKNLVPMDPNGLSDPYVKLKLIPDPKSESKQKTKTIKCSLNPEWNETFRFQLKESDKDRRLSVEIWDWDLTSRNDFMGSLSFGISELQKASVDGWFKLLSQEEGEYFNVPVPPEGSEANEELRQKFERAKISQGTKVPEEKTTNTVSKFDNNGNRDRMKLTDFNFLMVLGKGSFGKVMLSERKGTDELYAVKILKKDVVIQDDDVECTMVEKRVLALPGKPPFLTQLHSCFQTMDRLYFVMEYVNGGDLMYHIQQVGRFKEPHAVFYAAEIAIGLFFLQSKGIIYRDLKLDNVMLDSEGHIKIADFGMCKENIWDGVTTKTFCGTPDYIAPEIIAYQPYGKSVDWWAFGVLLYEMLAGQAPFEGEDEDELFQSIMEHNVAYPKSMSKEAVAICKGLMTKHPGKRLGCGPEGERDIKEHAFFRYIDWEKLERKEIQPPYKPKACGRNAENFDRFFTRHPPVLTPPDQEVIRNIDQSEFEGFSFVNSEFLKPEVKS
Method for PKC-α: (§1) Compounds were evaluated for PKC isozyme selectivity using histone III as the substrate. […] 100 μg/mL phosphatidylserine, 20 μg/mL diacylglycerol, 30 μM ATP, 1 μCi [^33P]ATP and 200 μg/mL histone III. The reaction was incubated for 10 min at 30° C. Reactions were terminated by TCA precipitation and spotting on Whatman P81 filters. Filters were washed in 75 mM phosphoric acid and the radioactivity quantified by liquid scintillation counting.
Method for PKC-βII: as §1
Method for PKC-γ: as §1

As for `O=C1NC(=O)C(c2cn(CCCO)c3ncccc23)=C1c1cccc2ccccc12` [Cpd 3, 3-[1-(3-hydroxypropyl)-1H-pyrrolo[2,3-b]pyridin-3-yl]-4-(1-naphthalenyl)-1H-pyrrole-2,5-dione], the inhibition at 1 µM stood at 0% at PKC-α, 20% at PKC-γ and 30% against PKC-βII. Besides, the inhibition at 10 µM was 51% at PKC-α, 31% at PKC-γ and 89% at PKC-βII. In addition, the 50% inhibitory concentration (IC50) in assay [1] was 30 nM and 31 nM.

With `CN(C)CCCn1cc(C2=C(c3cccc4ccccc34)C(=O)NC2=O)c2cccnc21` [Cpd 4, 3-[1-[3-(dimethylamino)propyl]-1H-pyrrolo[2,3-b]pyridin-3-yl]-4-(1-naphthalenyl)-1H-pyrrole-2,5-dione], the inhibition at 1 µM on PKC-α came to 0%; at PKC-γ, 48%; against PKC-βII it was 47%. In addition, the inhibition at 10 µM on PKC-α was 34%; on PKC-γ, 59%; against PKC-βII, 84%. Moreover, in assay [1] (@100 nM), the inhibition at 0.1 µM amounted to 51%.

Regarding `O=C1NC(=O)C(c2cn(CCCO)c3ncccc23)=C1c1csc2ccc(Cl)cc12` [Cpd 5, 3-(5-chlorobenzo[b]thien-3-yl)-4-[1-(3-hydroxypropyl)-1H-pyrrolo[2,3-b]pyridin-3-yl]-1H-pyrrole-2,5-dione], the inhibition at 1 µM was found to be 0% at PKC-α, 44% on PKC-γ and 21% at PKC-βII. Besides, the inhibition at 10 µM on PKC-α was 34%; on PKC-γ, 57%; at PKC-βII, 81%. The inhibition at 0.4 µM in assay [1] (@400 nM) was 56%.

Regarding `CN(C)CCCn1nc(C2=C(c3cn(-c4ccc5ccccc5c4)c4ncccc34)C(=O)NC2=O)c2ccccc21` [Cpd 20, 3-[1-[3-(dimethylamino)propyl]-1H-indazol-3-yl]-4-[1-(2-naphthalenyl)-1H-pyrrolo[2,3-b]pyridin-3-yl]-1H-pyrrole-2,5-dione], the IC50 on PKC-α turned out to be 53 nM; against PKC-γ, 151 nM; against PKC-βII, 2 nM. Also, the inhibition at 1 µM in assay [1] was determined as 21%.

Consider `O=C1NC(=O)C(c2nn(CCCO)c3ccccc23)=C1c1cn(-c2ccc3ccccc3c2)c2ncccc12` [Cpd 21, 3-[1-(3-hydroxypropyl)-1H-indazol-3-yl]-4-[1-(2-naphthalenyl)-1H-pyrrolo[2,3-b]pyridin-3-yl]-1H-pyrrole-2,5-dione], for which the IC50 on PKC-α came to 1440 nM; against PKC-γ it was 859 nM; at PKC-βII, 36 nM. The inhibition at 1 µM in assay [1] was found to be 44%.

As for `COC(=O)NCCCn1cc(C2=C(c3ccccc3OC)C(=O)NC2=O)c2cccnc21` [Cpd 35, [3-[3-[2,5-dihydro-4-(2-methoxyphenyl)-2,5-dioxo-1H-pyrrol-3-yl]-1H-pyrrolo[2,3-b]pyridin-1-yl]propyl]-carbamic acid methyl ester], the inhibition at 10 µM at PKC-α was found to be 31%; at PKC-γ, 35%. Also, the half-inhibitory concentration (IC50) in assay [1] is 8 nM and 11 nM. The molecule also displayed an inhibition at 1 µM on PKC-βII of 35%.

Regarding `COC(=O)NCCCn1cc(C2=C(c3ccccc3C(F)(F)F)C(=O)NC2=O)c2cccnc21` [Cpd 37, [3-[3-[2,5-dihydro-4-(2-trifluoromethylphenyl)-2,5-dioxo-1H-pyrrol-3-yl]-1H-pyrrolo[2,3-b]pyridin-1-yl]propyl]-carbamic acid methyl ester], the IC50 at PKC-α is 5270 nM; against PKC-γ, 4750 nM; in assay [1], 14 nM and 19 nM; on PKC-βII, 342 nM.

Consider `COc1ccccc1C1=C(c2cn(CCCNC=O)c3ncccc23)C(=O)NC1=O` [Cpd 78, N-[3-[3-[2,5-dihydro-4-(2-methoxyphenyl)-2,5-dioxo-1H-pyrrol-3-yl]-1H-pyrrolo[2,3-b]pyridin-1-yl]propyl]-formamide], for which the inhibition at 10 µM on PKC-α was determined as 33%; at PKC-γ, 48%. The half-maximal inhibitory concentration (IC50) in assay [1] was 7 nM and 9 nM. In addition, 1 µM produced 21% inhibition against PKC-βII.
